According to ChEMBL document CHEMBL4184320, “Optimization of Selective Mitogen-Activated Protein Kinase Interacting Kinases 1 and 2 Inhibitors for the Treatment of Blast Crisis Leukemia” (J Med Chem, 2018):
pIC50: −log10 of the molar value. ≈ marks a conversion by molar mass, not a printed value. Calls of active or inactive are those of the source. The calls are words filed in the database; no cut-off is given here.

Columns and labels:
[1] = test system: DOHH-2; test: Antiproliferative activity against human DOHH2 cells after 48 hrs by CellTiter-Glo luminescence assay; type: functional, cell-based
[2] = species: Homo sapiens; test: Antiproliferative activity against human AHH1 cells after 48 hrs by CellTiter-Glo luminescence assay; type: functional, cell-based
[3] = Cmax in CD-1 mouse at 5 mg/kg, po administered via gavage as single dose by LC-MS/MS analysis; type: ADME, organism-based; set-up: dose 5 mg/kg, route oral; details: in vivo
[4] = Initial concentration in CD-1 mouse at 1 mg/kg, iv administered as single dose by LC-MS/MS analysis; type: ADME, organism-based; details: in vivo
[5] = test system: K562; test: Antitumor activity against human K562 cells overexpressing GFP-fussed full length mouse eIF4E xenografted in SCID mouse assessed as tumor growth inhibition at 100 mg/kg, po qd administered via gavage for 14 days relative to control; details: 336 h, read-out: TGI
[6] = in vivo; details: CD-1, mouse, po, 5 mg/kg
Description: Tmax in CD-1 mouse at 5 mg/kg, po administered via gavage as single dose by LC-MS/MS analysis

[7] = test system: Mus musculus; test: Toxicity in NOD/SCID mouse assessed as clinical adverse effect up to 200 mg/kg, po administered gavage treated for 7 consecutive days measured for 7 days post last dose; type: organism-based; details: in vivo, 168 h
[8] = Protein binding in mouse plasma at […] after 5 hrs by LC-MS/MS analysis; type: ADME, cell-free; details: read-out: PPB (converted)
[9] = test system: K562; test: Antitumor activity against human K562 cells overexpressing GFP-fussed full length mouse eIF4E xenografted in SCID mouse assessed as tumor growth inhibition administered as qd via gavage for 14 days cotreated with 2.5 mg/kg dasatinib for 1 hr post dose; type: functional, organism-based
[10] = Half life in CD-1 mouse at 1 mg/kg, iv administered as single dose by LC-MS/MS analysis; type: ADME, organism-based; details: in vivo
[11] = molecular target: Cytochrome P450 2D6 (Homo sapiens, UniProt P10635); test: Inhibition of CYP2D6 in human liver microsomes using dextromethorphan as substrate preincubated for 5 mins followed by NADPH addition by LC-MS/MS analysis; type: ADME
[12] = Clearance in CD-1 mouse at 1 mg/kg, iv administered as single dose by LC-MS/MS analysis; type: ADME, organism-based; details: in vivo
[13] = AUClast in CD-1 mouse at 5 mg/kg, po administered via gavage as single dose by LC-MS/MS analysis; type: ADME, organism-based; set-up: dose 5 mg/kg, time 0 - last, route oral; details: in vivo
[14] = Octanol-phosphate buffer partition coefficient, logD of compound at pH 7.4 by HPLC-UV analysis; type: physicochemical
[15] = Half life in dog liver microsomes at 1 uM in presence of NADPH by LC-MS/MS analysis; type: ADME, Canis lupus familiaris, microsome
[16] = Apparent permeability of the compound across apical side to basolateral side in human Caco2 cells by LC-MS/MS analysis; type: ADME, cell-based; details: Caco-2
[17] = test system: Mus musculus; test: Down regulation of phosphorylated eIF4E in CB17 SCID mouse xenografted with human K562 cells overexpressing GFP-fussed full length mouse eIF4E at 100 mg/kg, po administered as single dose up to 8 hrs cotreated with 2.5 mg/kg dasatinib by Western blot; type: functional, organism-based
[18] = test system: P3HR-1; test: Antiproliferative activity against human P3HR1 cells after 48 hrs by CellTiter-Glo luminescence assay; type: functional, cell-based
[19] = test system: Mus musculus; test: Down regulation of phosphorylated CRKL in CB17 SCID mouse xenografted with human K562 cells overexpressing GFP-fussed full length mouse eIF4E at 100 mg/kg, po administered as single dose up to 8 hrs cotreated with 2.5 mg/kg dasatinib by Western blot; type: functional, organism-based
[20] = species: Homo sapiens; test: Antiproliferative activity against human GK5 cells after 48 hrs by CellTiter-Glo luminescence assay; type: functional, cell-based
[21] = test system: K562; test: Antitumor activity against human K562 cells overexpressing GFP-fussed full length mouse eIF4E xenografted in SCID mouse assessed as increase in tumor free animal at 100 mg/kg, po administered as qd via gavage for 14 days cotreated with 2.5 mg/kg dasatinib for 1 hr post dose; type: functional, organism-based
[22] = Protein binding in human plasma at […] after 5 hrs by LC-MS/MS analysis; type: ADME, cell-free; details: read-out: PPB (converted)
[23] = Thermodynamic solubility of the compound at pH 4 to 7.4 pION buffer after 18 hrs by UV spectrophotometric analysis; type: physicochemical; details: read-out: Therm_solubility
[24] = in vitro; details: human, liver microsomes
Description: Half life in human liver microsomes at 1 uM in presence of NADPH by LC-MS/MS analysis

[25] = Oral bioavailability in CD-1 mouse at 5 mg/kg administered via gavage as single dose by LC-MS/MS analysis; type: ADME, organism-based; details: in vivo
[26] = in vitro; details: rat, liver microsomes
Description: Half life in rat liver microsomes at 1 uM in presence of NADPH by LC-MS/MS analysis

[27] = in vitro; details: mouse, liver microsomes
Description: Half life in mouse liver microsomes at 1 uM in presence of NADPH by LC-MS/MS analysis

[28] = Permeability of the compound by PAMPA; type: ADME; details: read-out: permeability
[29] = test system: Mus musculus; test: Toxicity in NOD/SCID mouse assessed as change in weight loss up to 200 mg/kg, po administered gavage treated for 7 consecutive days measured for 7 days post last dose; type: organism-based; details: in vivo, 168 h
[30] = Half life in CD-1 mouse at 5 mg/kg, po administered via gavage as single dose by LC-MS/MS analysis; type: ADME, organism-based; details: in vivo
[31] = AUClast in CD-1 mouse at 1 mg/kg, iv administered as single dose by LC-MS/MS analysis; type: ADME, organism-based; set-up: dose 1 mg/kg, time 0 - last, route intravenous; details: in vivo
[32] = molecular target: Cytochrome P450 3A4 (Homo sapiens, UniProt P08684)
Description: Inhibition of CYP3A4 in human liver microsomes using midazolam as substrate preincubated for 5 mins followed by NADPH addition measured after 5 mins by LC-MS/MS analysis

[33] = molecular target: Dual specificity mitogen-activated protein kinase kinase; MEK1/2 (Homo sapiens) (UniProt P36507+Q02750); test: Inhibition of MEK (unknown origin) at 1 uM by KINOMEscan assay relative to control; type: protein assay
[34] = test system: Mus musculus; test: Toxicity in SCID mouse xenografted with human K562 cells overexpressing GFP-fussed full length mouse eIF4E assessed as weight loss at 25 to 100 mg/kg, po qd administered via gavage for 14 days cotreated with 2.5 mg/kg dasatinib for 1 hr post dose; type: organism-based; details: in vivo

Sequence of Dual specificity mitogen-activated protein kinase kinase; MEK1/2 (Homo sapiens) (P36507 whole entry, looked up): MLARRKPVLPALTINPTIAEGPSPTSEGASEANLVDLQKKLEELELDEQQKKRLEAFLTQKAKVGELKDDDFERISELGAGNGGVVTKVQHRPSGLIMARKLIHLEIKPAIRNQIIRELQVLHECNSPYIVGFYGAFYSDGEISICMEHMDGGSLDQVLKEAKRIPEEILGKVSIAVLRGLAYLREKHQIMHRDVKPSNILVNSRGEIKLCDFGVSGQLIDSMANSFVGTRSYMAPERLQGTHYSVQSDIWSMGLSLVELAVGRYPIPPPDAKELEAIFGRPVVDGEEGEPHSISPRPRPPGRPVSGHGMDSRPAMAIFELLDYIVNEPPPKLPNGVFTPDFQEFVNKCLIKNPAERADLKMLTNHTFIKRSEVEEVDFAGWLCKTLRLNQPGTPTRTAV
Sequence of Dual specificity mitogen-activated protein kinase kinase; MEK1/2 (Homo sapiens) (Q02750 whole entry, looked up): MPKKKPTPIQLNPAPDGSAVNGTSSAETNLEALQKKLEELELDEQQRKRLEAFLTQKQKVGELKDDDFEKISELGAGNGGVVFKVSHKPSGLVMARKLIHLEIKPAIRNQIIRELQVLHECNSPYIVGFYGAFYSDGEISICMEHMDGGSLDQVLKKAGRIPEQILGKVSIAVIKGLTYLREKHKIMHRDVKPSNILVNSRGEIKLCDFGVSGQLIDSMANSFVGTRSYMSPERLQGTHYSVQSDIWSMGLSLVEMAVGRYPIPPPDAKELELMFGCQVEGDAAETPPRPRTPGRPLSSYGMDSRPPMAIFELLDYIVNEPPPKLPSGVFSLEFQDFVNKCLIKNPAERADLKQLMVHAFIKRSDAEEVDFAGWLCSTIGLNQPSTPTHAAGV
Sequence of Cytochrome P450 2D6 (P10635 whole entry): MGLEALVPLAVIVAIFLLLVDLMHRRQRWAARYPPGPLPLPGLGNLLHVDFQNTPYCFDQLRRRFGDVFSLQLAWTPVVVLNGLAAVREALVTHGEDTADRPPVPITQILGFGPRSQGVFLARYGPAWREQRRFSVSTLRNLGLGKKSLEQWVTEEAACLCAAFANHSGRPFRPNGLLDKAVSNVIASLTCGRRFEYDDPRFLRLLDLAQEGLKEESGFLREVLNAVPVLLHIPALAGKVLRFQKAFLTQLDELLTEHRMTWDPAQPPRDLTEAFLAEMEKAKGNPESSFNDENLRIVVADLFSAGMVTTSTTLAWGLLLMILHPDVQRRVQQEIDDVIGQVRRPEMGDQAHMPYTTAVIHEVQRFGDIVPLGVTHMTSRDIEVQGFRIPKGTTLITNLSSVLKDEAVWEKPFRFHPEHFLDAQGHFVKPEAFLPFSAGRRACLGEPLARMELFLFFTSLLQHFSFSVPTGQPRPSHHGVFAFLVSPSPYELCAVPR
Sequence of Cytochrome P450 3A4 (P08684 whole entry): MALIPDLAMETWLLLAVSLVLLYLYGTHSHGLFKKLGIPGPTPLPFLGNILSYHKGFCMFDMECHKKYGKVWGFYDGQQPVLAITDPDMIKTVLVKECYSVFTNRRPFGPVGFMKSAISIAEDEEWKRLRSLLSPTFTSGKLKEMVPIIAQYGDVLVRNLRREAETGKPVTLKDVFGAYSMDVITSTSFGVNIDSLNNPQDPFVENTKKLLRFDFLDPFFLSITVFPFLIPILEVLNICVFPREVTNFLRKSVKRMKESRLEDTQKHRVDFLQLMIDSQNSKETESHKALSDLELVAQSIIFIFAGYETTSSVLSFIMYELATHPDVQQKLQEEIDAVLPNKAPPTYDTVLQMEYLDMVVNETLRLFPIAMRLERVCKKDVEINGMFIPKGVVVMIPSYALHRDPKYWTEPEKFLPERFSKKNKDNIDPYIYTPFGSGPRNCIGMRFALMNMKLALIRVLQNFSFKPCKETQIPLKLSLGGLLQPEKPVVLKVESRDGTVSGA

## N#Cc1ccc(-c2cnc3ccc(-c4ccc(C(=O)N5CCOCC5)cc4)cn23)cc1 [TINODASERTIB]
[1]
  Activity: Active
[2]
  Activity: Active
[3]
  Cmax: 2.48 µg/mL
[4]
  C0: 2.38 µg/mL
[5]
  inhibition in vivo at 100 mg/kg: 23%
[6]
  Tmax: 30 min
[7]
  Activity: Non-Toxic
[8]
  fraction unbound at 5 h: 0.158
[9]
  TGI: Dose-dependent effect
[10]
  half-life: 102 min
[11]
  pIC50: < 4.70
[12]
  clearance: 0.56 L/h/kg
[13]
  AUC(0-t): 5.48 µg·h/mL
[14]
  logD: 2.61
[15]
  half-life at 1 µM: > 60 min
[16]
  Papp A→B: 305 nm/s
[17]
  Activity: Active
[18]
  Activity: Active
[19]
  Activity: Active
[20]
  Activity: Active
[21]
  Activity: Active
[22]
  fraction unbound at 5 h: 0.003
[23]
  solubility thermodynamic at 18 h: 0.0554 mg/mL (≈ 136 µM)
[24]
  half-life at 1 µM: 48 min
[25]
  bioavailability: 64%
[26]
  half-life at 1 µM: > 60 min
[27]
  half-life at 1 µM: 56 min
[28]
  Papp: 744 nm/s
[29]
  Activity: Non-Toxic
[30]
  half-life: 106 min
[31]
  AUC(0-t): 1.76 µg·h/mL
[32]
  pIC50: < 4.70
[33]
  inhibition: > 65%
[34]
  Activity: Non-Toxic
